From PubChem BioAssay AID248 (DTP/NCI, 2004) come the findings set out here.

This test deals with L1210 leukemia ip in BDF1 mice, survival T/C. The experiment in a line: NCI In Vivo Anticancer Drug Screen. Data for tumor model L1210 Leukemia (intraperitoneal) in B6D2F1 (BDF1) mice. The conditions noted are these: endpoint: mean survival time, higher = longer survival. The essentials: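 Antitumor effect is assessed in tumor-bearing animals. Survival in the compound arm is compared with a vehicle-dosed control arm and expressed as their quotient.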

Setting [1] is: dose: 100.0 mg/kg/injection, schedule: Q04DX002 (ip), vehicle: Klucel (hydroxypropylcellulose) (HPC).
Setting [2] is: dose: 200.0 mg/kg/injection, schedule: Q04DX002 (ip), vehicle: Klucel (hydroxypropylcellulose) (HPC).
Where [3] appears, read: dose: 400.0 mg/kg/injection, schedule: Q04DX002 (ip), vehicle: Klucel (hydroxypropylcellulose) (HPC).
The mark [4] stands for this setting: dose: 100.0 mg/kg/injection, schedule: Q04DX003 (ip), vehicle: Klucel (hydroxypropylcellulose) (HPC).
[5] abbreviates: dose: 200.0 mg/kg/injection, schedule: Q04DX003 (ip), vehicle: Klucel (hydroxypropylcellulose) (HPC).
Setting [6] is: dose: 400.0 mg/kg/injection, schedule: Q04DX003 (ip), vehicle: Klucel (hydroxypropylcellulose) (HPC).
[7] abbreviates: dose: 100.0 mg/kg/injection, schedule: Q04DX003 (ip), vehicle: saline.
Where [8] appears, read: dose: 100.0 mg/kg/injection, schedule: Q01DX009 (ip), vehicle: Klucel (hydroxypropylcellulose) (HPC).
The mark [9] stands for this setting: dose: 200.0 mg/kg/injection, schedule: Q01DX009 (ip), vehicle: Klucel (hydroxypropylcellulose) (HPC).
[10] abbreviates: dose: 400.0 mg/kg/injection, schedule: Q01DX009 (ip), vehicle: Klucel (hydroxypropylcellulose) (HPC).
[11] abbreviates: dose: 100.0 mg/kg/injection, schedule: Q04DX003 (ip), vehicle: saline with Tween-80.
[12] abbreviates: dose: 200.0 mg/kg/injection, schedule: Q04DX003 (ip), vehicle: saline with Tween-80.
[13] abbreviates: dose: 400.0 mg/kg/injection, schedule: Q04DX003 (ip), vehicle: saline with Tween-80.

Molecules are shown by their SMILES. Toxic doses and inconclusive results are not listed.

`C[C@@H]1CCC[C@@H](NC(=O)N(CCCl)N=O)C1`: the T/C is, setting by setting: (dose: 6.7 mg/kg/injection, schedule: Q01DX001 (ip), vehicle: saline with Tween-80) 108 % of control; (dose: 10.0 mg/kg/injection, schedule: Q01DX001 (ip), vehicle: saline with Tween-80) 113 % of control; (dose: 15.0 mg/kg/injection, schedule: Q01DX001 (ip), vehicle: saline with Tween-80) 124 % of control; (dose: 18.7 mg/kg/injection, schedule: Q01DX009 (ip), vehicle: Klucel (hydroxypropylcellulose) (HPC)) 188 % of control; (dose: 34.0 mg/kg/injection, schedule: Q01DX001 (ip), vehicle: saline with Tween-80) 166 % of control; (dose: 37.5 mg/kg/injection, schedule: Q01DX009 (ip), vehicle: Klucel (hydroxypropylcellulose) (HPC)) 328 % of control. For the same compound, the T/C reads like this: (dose: 50.0 mg/kg/injection, schedule: Q01DX001 (ip), vehicle: saline with Tween-80) 293 % of control; (dose: 75.0 mg/kg/injection, schedule: Q01DX001 (ip), vehicle: saline with Tween-80) 484 % of control; (dose: 75.0 mg/kg/injection, schedule: Q01DX009 (ip), vehicle: Klucel (hydroxypropylcellulose) (HPC)) 198 % of control; (dose: 112.0 mg/kg/injection, schedule: Q01DX001 (ip), vehicle: saline with Tween-80) 444 % of control; (dose: 150.0 mg/kg/injection, schedule: Q01DX009 (ip), vehicle: Klucel (hydroxypropylcellulose) (HPC)) 106 % of control; (dose: 168.0 mg/kg/injection, schedule: Q01DX001 (ip), vehicle: saline with Tween-80) 434 % of control.
`O=C(O)C1CCC1(C(=O)O)C(=O)O` (stereo not drawn): the T/C was 94 % of control (dose: 100.0 mg/kg/injection, schedule: Q04DX002 (ip), vehicle: saline); 90 % of control (dose: 200.0 mg/kg/injection, schedule: Q04DX002 (ip), vehicle: saline); 94 % of control (dose: 400.0 mg/kg/injection, schedule: Q04DX002 (ip), vehicle: saline).
As for `Cc1cc(Cl)ccc1OC(=O)COc1cc(Cl)c(Cl)cc1Cl`, the T/C (dose: 1.56 mg/kg/injection, schedule: Q04DX002 (ip), vehicle: Klucel (hydroxypropylcellulose) (HPC)) was 108 % of control; the T/C (dose: 3.13 mg/kg/injection, schedule: Q04DX002 (ip), vehicle: Klucel (hydroxypropylcellulose) (HPC)) was 108 % of control; the T/C (dose: 6.25 mg/kg/injection, schedule: Q04DX002 (ip), vehicle: Klucel (hydroxypropylcellulose) (HPC)) was 105 % of control; the T/C (dose: 12.5 mg/kg/injection, schedule: Q04DX002 (ip), vehicle: Klucel (hydroxypropylcellulose) (HPC)) is 95 % of control; the T/C (dose: 25.0 mg/kg/injection, schedule: Q04DX002 (ip), vehicle: Klucel (hydroxypropylcellulose) (HPC)) was 100 % of control; the T/C (dose: 50.0 mg/kg/injection, schedule: Q04DX002 (ip), vehicle: Klucel (hydroxypropylcellulose) (HPC)) is 100 % of control.
As for `CCn1c(C)nc2cc(N=Cc3ccc(N(CCCl)CCCl)cc3)ccc21`, the T/C under setting [1] is 113 % of control, the T/C under setting [2] was 106 % of control and the T/C under setting [3] is 106 % of control.
On to `CC(C)(C)c1ccc(-c2nnc(-c3ccc(-c4ccccc4)cc3)o2)cc1`, for which the T/C under setting [4] was 95 % of control, the T/C under setting [5] is 92 % of control and the T/C under setting [6] was 90 % of control.
For the compound `CC[N+](C)(CC)CCNC(=O)C(c1ccccc1)c1ccccc1`, the T/C under setting [7] is 100 % of control.
Turning to `CCCCCNc1ccnc(=O)[nH]1`, the T/C is 99 % of control (dose: 50.0 mg/kg/injection, schedule: Q01DX001 (ip), vehicle: Klucel (hydroxypropylcellulose) (HPC)); 94 % of control (dose: 100.0 mg/kg/injection, schedule: Q01DX001 (ip), vehicle: Klucel (hydroxypropylcellulose) (HPC)); 96 % of control (dose: 200.0 mg/kg/injection, schedule: Q01DX001 (ip), vehicle: Klucel (hydroxypropylcellulose) (HPC)).
Take `CC(=O)OCC(=O)C12OC1CC1C3CCC4CC(O)CCC4(C)C3CC(=O)C12C` (stereo not drawn): the T/C is, setting by setting: (dose: 6.0 mg/kg/injection, schedule: Q04DX002 (ip), vehicle: other) 91 % of control; (dose: 12.5 mg/kg/injection, schedule: Q04DX002 (ip), vehicle: other) 106 % of control; (dose: 25.0 mg/kg/injection, schedule: Q04DX002 (ip), vehicle: other) 98 % of control; (dose: 50.0 mg/kg/injection, schedule: Q04DX002 (ip), vehicle: other) 98 % of control.
With `COc1ccc(-n2cccc2/C=N/O)cc1`, the T/C under setting [1] is 96 % of control, the T/C under setting [2] was 100 % of control and the T/C under setting [3] was 86 % of control.
Regarding `OC(Nc1ccccn1)(C(F)(F)F)C(F)(F)F`, the T/C (dose: 100.0 mg/kg/injection, schedule: Q01DX001 (ip), vehicle: saline) was 103 % of control.
On to `CNC(=O)c1cc(NC(=O)Nc2cccc(C3=NCCN3)c2)cc(NC(=O)Nc2cccc(C3=NCCN3)c2)c1`, for which the T/C runs as follows: (dose: 15.0 mg/kg/injection, schedule: Q01DX Z (ip), vehicle: saline) 114 % of control; (dose: 30.0 mg/kg/injection, schedule: Q01DX Z (oral), vehicle: saline) 103 % of control; (dose: 60.0 mg/kg/injection, schedule: Q01DX Z (ip), vehicle: saline) 120 % of control; (dose: 60.0 mg/kg/injection, schedule: Q01DX Z (oral), vehicle: saline) 119 % of control; (dose: 120.0 mg/kg/injection, schedule: Q01DX Z (oral), vehicle: saline) 101 % of control; (dose: 240.0 mg/kg/injection, schedule: Q01DX Z (oral), vehicle: saline) 95 % of control.
For the compound `CCN(CC)CCCOP(=O)(N(CC)CC)N(CCCl)CCCl` (stereo not drawn), the T/C (dose: 200.0 mg/kg/injection, schedule: Q01DX001 (ip), vehicle: saline with Tween-80) is 101 % of control.
On to `Cc1ccc(NC(=O)/C=C\C(=O)O)cc1`, for which the T/C under setting [8] is 103 % of control; the T/C under setting [4] was 97 % of control; the T/C under setting [9] is 108 % of control; the T/C under setting [5] is 96 % of control; the T/C under setting [10] was 91 % of control; the T/C under setting [6] is 91 % of control.
As to `CN(C)CCOC(=O)C1C2CC3OC(=O)C1C3C2` (stereo not drawn), the T/C was 96 % of control under setting [7]; 104 % of control (dose: 200.0 mg/kg/injection, schedule: Q04DX003 (ip), vehicle: saline); 104 % of control (dose: 400.0 mg/kg/injection, schedule: Q04DX003 (ip), vehicle: saline).
For `CCCCC(CC)COC(OCC(CC)CCCC)C(OCC(CC)CCCC)OCC(CC)CCCC` (stereo not drawn), the T/C runs as follows: (dose: 100.0 mg/kg/injection, schedule: Q01DX009 (ip), vehicle: saline) 101 % of control; under setting [11], 98 % of control; (dose: 200.0 mg/kg/injection, schedule: Q01DX009 (ip), vehicle: saline) 101 % of control; under setting [12], 94 % of control; (dose: 400.0 mg/kg/injection, schedule: Q01DX009 (ip), vehicle: saline) 113 % of control; under setting [13], 91 % of control.
Take `O=C(NCCBr)Nc1ccc2c(c1)CCCC2`: the T/C was 102 % of control under setting [4], 93 % of control under setting [5] and 93 % of control under setting [6].
On to `O=C1OC(=O)C2CC3OC3CC12` (stereo not drawn), for which the T/C runs as follows: (dose: 50.0 mg/kg/injection, schedule: Q01DX001 (ip), vehicle: saline sonified) 106 % of control; (dose: 100.0 mg/kg/injection, schedule: Q01DX001 (ip), vehicle: saline sonified) 96 % of control; under setting [11], 91 % of control; (dose: 200.0 mg/kg/injection, schedule: Q01DX001 (ip), vehicle: saline sonified) 93 % of control; under setting [12], 94 % of control; under setting [13], 108 % of control.
Take `CCCCCCCCCCCCCCOc1ccc(Cl)cc1Cl`: the T/C under setting [8] is 107 % of control, the T/C under setting [9] was 100 % of control and the T/C under setting [10] was 105 % of control.
For `O=[N+]([O-])c1cc2c(cc1Br)nc(Cl)c1cc(Br)ccc12`, the T/C runs as follows: under setting [8], 89 % of control; under setting [4], 104 % of control; under setting [9], 91 % of control; under setting [5], 100 % of control; under setting [6], 96 % of control.
